Source: patent publication US4582821A, “Inhibition of cyclic nucleotide independent protein kinases” (E. I. Du Pont de Nemours and Company, priority 1983, dated 1986)
Square brackets hold non-standard residues; d marks the D form. Peptide text beside a SMILES is read from it. * marks the point of attachment. ξ: configuration not given here. Cbz = O=C(OCc1ccccc1)*; ξL = CC(C)CC(N)C(=O)O; CH2Cl = ClC*

How the values were obtained:
p130^fps = molecular target: T1, p130^fps (UniProt P00530+P03323); assay: Casein phosphorylation by p130fps immunoprecipitates; type: biochemical, Fujinami sarcoma virus (FSV); conditions: casein-phosphorylating activity of p130fps; concentration not given
T1 construct: anti-gag serum and Staphylococcus protein A suspension (for FSV-transformed cells); viral gag-derived N-terminal portion (natural gag-fps fusion); expressed in transfected cells; immune complex with anti-gag serum and Staphylococcus protein A
Method: In a related experiment, the capacity of Boc-LeuCH2 Br to inhibit phosphorylation of casein by p130^fps was determined. These tests were conducted substantially as described above, except 1 mg/mL casein was added to assay mixtures as a substrate, and reactions were terminated by addition of 2.5 mM unlabeled ATP and immediate cooling to 0°. Phosphorylated casein was separated from immunoprecipitate suspensions by centrifugation at 3,000 xg for 3 minutes. The resulting pellets were resuspended in 70 μL of 10 mM Hepes, pH 7.5, and 20 μL aliquots were pipetted onto filter paper squares as previously described. […]

lymphoma cell line YAC-1 = assay: Tumor cell line growth inhibition, YAC-1; type: cell-based
Method: (§1) In this series of experiments, the tumor cell growth inhibitory capacity of various peptide halomethyl ketones was tested against lymphoma cell lines YAC-1 and MOLT-4, and against an erythroleukemia cell line, K-562. The lymphoma cell line YAC-1 is described by Kiessling, et al., Eur. J. Immunol. 5:112 (1975), and MOLT-4 is described by Minowada, et al., J. Natl. Cancer Inst. 49:891 (1972) and Nilsson, et al., Int. J. Cancer 15:321 (1975). The erythroleukemia cell line K-562 is described by Lozzio, et al., Leuk. Res. 3:363 (1979). In these experiments, cells were grown on standard media as 10 mL suspension cultures. Initial cell density was 10^5 cells/mL. At day 0, test compounds were introduced in ethanol; control cultures received an equal volume of ethanol. Cells were counted at the times indicated.

[1] = test system: lymphoma cell line MOLT-4; assay: Tumor cell line growth inhibition, MOLT-4; type: cell-based
Method: as §1

[2] = test system: erythroleukemia cell line K-562; assay: Tumor cell line growth inhibition, K-562; type: cell-based
Method: as §1

[3] = test system: A-431 plasma membrane extracts (EGF-mediated protein phosphorylation); assay: Protein phosphorylation in solubilized A-431 plasma membrane extracts, with or without EGF; type: biochemical, human
Method: The capacity of certain peptide halomethyl ketones to inhibit protein phosphorylation is illustrated by Examples 1-8, below, in which solubilized plasma membranes prepared from A-431 human epidermoid carcinoma cells were incubated with [γ-^32 P] ATP in the presence of EGF.
A-431 human epidermoid carcinoma cells were grown in Dulbecco's modified Eagle's medium containing 5% fetal calf serum. Plasma membranes were isolated by a method substantially similar to that described by Thom et al., Biochem J. 168:187 (1977), and kept at -70°. Solubilization of plasma membranes was performed substantially as described by Cohen et al., J. Biol. Chem. 255:4834 (1980). In this procedure, 7.5 mg/mL protein was solubilized with 5% Triton X-100 (octylphenol), 10% glycerol, and 20 mM Hepes buffer (N-2-hydroxyethylpiperazine-N^1 -2-ethanesulfonic acid), pH 7.4. This mixture was incubated for 20 minutes at about 23°, followed by centrifugation at 100,000 xg for 60 minutes.
(§2) Protein phosphorylation assays were conducted substantially as described by Carpenter et al., J. Biol. Chem. 254:4884 (1979). Each assay mixture contained, in a final volume of 70 μL: 20 mM Hepes, pH 7.4, 0.01% bovine serum albumin (BSA), 15-150 μg protein in Triton extract, 100 ng EGF, 1 mM MnCl2 and 10-20 μM [γ-^32 P] ATP (2-4 μCi). Peptide halomethyl ketones were added as solutions in ethanol; an equivalent volume of ethanol was added to controls. Assay mixtures were incubated at about 23° for ten minutes, with or without added EGF. Mixtures were then held at 0° for ten minutes before initiation of phosphorylation by addition of 15 μM γ-^32 P) ATP (2 μCi). Reactions were terminated after 3 minutes at 0° by applying an aliquot of the assay mixture to a Whatman 3MM filter paper (2×2 cm), which was then suspended in ice-cold 10% trichloroacetic acid containing 10 mM pyrophosphate. This suspension was gently shaken for a period of 1 hour, during which the trichloroacetic acid/pyrophosphate mixture was changed three times. Finally, the filter papers were dried and radioactivity measured by scintillation counting.

A-431 cell EGF receptor = molecular target: T2, A-431 cell EGF receptor (Homo sapiens, UniProt P00533); assay: Protein phosphorylation of A-431 cell membrane EGF receptors (intact membranes, EGF present); type: biochemical; conditions: 600 nmoles/mg protein, intact A-431 membranes
T2 construct: intact A-431 cell membranes were employed, rather than solubilized extracts; endogenous in cells; host or cells: A-431 human epidermoid carcinoma cells (plasma membranes)
Method: as §2
Assays were conducted substantially as described above, except intact A-431 cell membranes were employed, rather than solubilized extracts, and assay mixtures contained 1 mM ouabain. In these Examples, reactions were permitted to proceed for 6 minutes. This technique is substantially similar to that disclosed by Navarro et al., Biochemistry, 21:6138 (1982).

[4] = 400 nmol/mg protein, control 20.2
[5] = 400 nmol/mg protein, control 7.3

T2 sequence (P00533 25-1210): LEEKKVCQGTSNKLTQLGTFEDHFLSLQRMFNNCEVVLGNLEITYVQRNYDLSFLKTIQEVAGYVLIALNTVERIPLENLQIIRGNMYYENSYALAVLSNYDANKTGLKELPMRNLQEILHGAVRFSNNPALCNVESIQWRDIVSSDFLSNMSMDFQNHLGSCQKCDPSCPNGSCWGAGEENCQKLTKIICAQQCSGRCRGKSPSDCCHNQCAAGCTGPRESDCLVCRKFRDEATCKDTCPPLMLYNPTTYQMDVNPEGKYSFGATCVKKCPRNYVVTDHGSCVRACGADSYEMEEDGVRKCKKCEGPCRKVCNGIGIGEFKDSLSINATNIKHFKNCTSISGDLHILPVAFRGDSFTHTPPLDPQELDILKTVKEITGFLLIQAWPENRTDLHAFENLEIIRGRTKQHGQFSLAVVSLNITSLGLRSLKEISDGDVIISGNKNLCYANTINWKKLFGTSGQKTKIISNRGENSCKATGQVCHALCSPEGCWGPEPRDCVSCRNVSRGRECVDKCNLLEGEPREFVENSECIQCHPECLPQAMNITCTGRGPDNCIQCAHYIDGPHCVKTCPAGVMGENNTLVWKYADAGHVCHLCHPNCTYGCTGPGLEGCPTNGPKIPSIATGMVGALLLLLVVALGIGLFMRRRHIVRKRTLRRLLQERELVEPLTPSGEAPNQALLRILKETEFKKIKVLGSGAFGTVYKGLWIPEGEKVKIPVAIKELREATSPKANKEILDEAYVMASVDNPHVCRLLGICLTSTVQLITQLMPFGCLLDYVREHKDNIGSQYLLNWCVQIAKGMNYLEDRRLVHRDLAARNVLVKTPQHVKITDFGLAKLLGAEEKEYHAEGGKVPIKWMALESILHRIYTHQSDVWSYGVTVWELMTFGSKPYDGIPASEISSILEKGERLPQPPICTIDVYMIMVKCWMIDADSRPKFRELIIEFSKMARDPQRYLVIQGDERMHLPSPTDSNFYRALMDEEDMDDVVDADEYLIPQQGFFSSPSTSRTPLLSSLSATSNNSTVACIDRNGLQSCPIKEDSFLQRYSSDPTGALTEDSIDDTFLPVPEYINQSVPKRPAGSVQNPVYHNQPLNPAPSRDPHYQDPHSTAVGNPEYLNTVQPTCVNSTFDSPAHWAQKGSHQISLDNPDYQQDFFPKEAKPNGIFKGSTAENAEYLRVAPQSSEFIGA

With `CC(=O)NC(Cc1ccccc1)C(=O)NC(CCC(=O)O)C(=O)NC(C)C(=O)NC(CC(C)C)C(=O)CCl` (stereo not drawn) [Ac-Phe-Glu-Ala-LeuCH2 Cl] (Ac-FEAL-CH2Cl; configuration not given here) the “Percent Inhibition” value (p130^fps) was -1%.
With `CC(=O)N[C@@H](Cc1ccccc1)C(=O)NCC(=O)N[C@@H](C)C(=O)N[C@@H](CC(C)C)C(=O)CCl` [Ac-Phe-Gly-Ala-LeuCH2 Cl] (Ac-FGAL-CH2Cl) the “% Growth Relative to Control Cultures” value (lymphoma cell line YAC-1; 0.4 μg/mL, day 1) was 80%, the “% Growth Relative to Control Cultures” value (lymphoma cell line YAC-1; 0.4 μg/mL, day 2) was 91% and the “% Growth Relative to Control Cultures” value (lymphoma cell line YAC-1; 10. μg/mL, day 1) was 78%. For the same compound, the “% Growth Relative to Control Cultures” value (lymphoma cell line YAC-1; 10. μg/mL, day 2) was 59%, the “% Growth Relative to Control Cultures” value (lymphoma cell line YAC-1; 10. μg/mL, day 3) was 43% and the “% Growth Relative to Control Cultures” value (lymphoma cell line YAC-1; 10. μg/mL, day 4) was 24%. For the same compound, the “% Growth Relative to Control Cultures” value ([1]; 0.4 μg/mL, day 1) was 50%, the “% Growth Relative to Control Cultures” value ([1]; 0.4 μg/mL, day 4) was 72% and the “% Growth Relative to Control Cultures” value ([1]; 0.4 μg/mL, day 7) was 66%. The “% Growth Relative to Control Cultures” value ([1]; 2.0 μg/mL, day 4) was 87%, the “% Growth Relative to Control Cultures” value ([1]; 10. μg/mL, day 7) was 88% and the “% Growth Relative to Control Cultures” value ([2]; 0.4 μg/mL, day 1) was 81%. For the same compound, the “% Growth Relative to Control Cultures” value ([2]; 0.4 μg/mL, day 3) was 85%, the “% Growth Relative to Control Cultures” value ([2]; 0.4 μg/mL, day 7) was 84% and the “% Growth Relative to Control Cultures” value ([2]; 2.0 μg/mL, day 4) was 79%. For the same compound, the “% Growth Relative to Control Cultures” value ([2]; 10. μg/mL, day 2) was 77%, the “% Growth Relative to Control Cultures” value ([2]; 10. μg/mL, day 3) was 87% and the “% Growth Relative to Control Cultures” value ([2]; 10. μg/mL, day 7) was 47%. For the same compound, the “% inhibition, EGF Added” value ([3]; 400 nmol/mg protein) was 59%, the “EGF Added (pmol 32P incorporated/min/mg protein)” value [3, 4] was 8.3 pmol^32 P incorporated/min/mg and the “% inhibition, No EGF Added” value ([3]; 400 nmol/mg protein) was 29%. For the same compound, the “No EGF Added (pmol 32P incorporated/min/mg protein)” value [3, 5] was 5.2 pmol^32 P incorporated/min/mg.
With `CC(=O)NC(Cc1ccccc1)C(=O)NCC(=O)NC(CCC(=O)O)C(=O)NC(CC(C)C)C(=O)CCl` (stereo not drawn) [Ac-Phe-Gly-Glu-LeuCH2 Cl] (Ac-FGEL-CH2Cl; configuration not given here) the “Percent Inhibition” value (p130^fps) was 0%.
`CC(C)[C@H](NC(=O)OC(C)(C)C)C(=O)CCl` [Boc-ValCH2 Cl] was tested, and the “% inhibition, EGF Added” value ([3]; 477 nmol/mg protein) was 25%, the “EGF Added (pmol 32P incorporated/min/mg protein)” value ([3]; 477 nmol/mg protein, control 96.2) was 72.2 pmol^32 P incorporated/min/mg and the “No EGF Added (pmol 32P incorporated/min/mg protein)” value ([3]; 477 nmol/mg protein, control 21.6) was 20.3 pmol^32 P incorporated/min/mg.
For `CC(C)C[C@H](NC(=O)[C@H](C)NC(=O)CNC(=O)[C@H](Cc1ccccc1)NC(=O)OCc1ccccc1)C(=O)CCl` [Z--Phe-Gly-Ala-LeuCH2 Cl, Z-Phe-Gly-Ala-LeuCH2 Cl] (Cbz-FGAL-CH2Cl), the “Percent Inhibition” value (p130^fps) was 27%.
For `C[C@H](NC(=O)CNC(=O)[C@H](Cc1ccccc1)NC(=O)OCc1ccccc1)C(=O)N[C@@H](Cc1ccc(O)cc1)C(=O)CCl` [Z--Phe-Gly-Ala-TyrCH2 Cl, Z-Phe-Gly-Ala-TyrCH2 Cl] (Cbz-FGAY-CH2Cl), the “% inhibition” value (A-431 cell EGF receptor) was 67%.
With `CC(C)CC(NC(=O)C(CC(C)C)NC(=O)CNC(=O)C(Cc1ccccc1)NC(=O)OCc1ccccc1)C(=O)CCl` (stereo not drawn) [Z--Phe-Gly-Leu-LeuCH2 Cl, Z-Phe-Gly-Leu-LeuCH2 Cl] (Cbz-FGLL-CH2Cl; configuration not given here) the “Percent Inhibition” value (p130^fps) was 44%.
In the case of `CC(C)CC(NC(=O)C(CCCCN)NC(=O)CNC(=O)C(Cc1ccccc1)NC(=O)OCc1ccccc1)C(=O)CCl` (stereo not drawn) [Z--Phe-Gly-Lys-LeuCH2 Cl, Z-Phe-Gly-Lys-LeuCH2 Cl] (Cbz-FGKL-CH2Cl; configuration not given here), the “Percent Inhibition” value (p130^fps) is reported as 48%.
In the case of `CC(C)C[C@H](NC(=O)[C@H](Cc1ccccc1)NC(=O)CNC(=O)[C@H](Cc1ccccc1)NC(=O)OCc1ccccc1)C(=O)CCl` [Z--Phe-Gly-Phe-LeuCH2 Cl, Z-Phe-Gly-Phe-LeuCH2 Cl] (Cbz-FGFL-CH2Cl), the “Percent Inhibition” value (p130^fps) is reported as 34%.
`CC(C)C[C@H](NC(=O)[C@@H]1CCCN1C(=O)CNC(=O)[C@H](Cc1ccccc1)NC(=O)OCc1ccccc1)C(=O)CCl` [Z--Phe-Gly-Pro-LeuCH2 Cl] (Cbz-FGPL-CH2Cl) was tested, and the “Percent Inhibition” value (p130^fps) was 7%.
`CC(C)CC(NC(=O)[C@H](C)NC(=O)[C@H](CC(C)C)NC(=O)[C@H](Cc1ccccc1)NC(=O)OCc1ccccc1)C(=O)CCl` (stereo partly drawn) [Z--Phe-Leu-Ala-LeuCH2 Cl, Z-Phe-Leu-Ala-LeuCH2 Cl] (Cbz-FLA[ξL]-CH2Cl) was tested, and the “Percent Inhibition” value (p130^fps) was 36%.
For `CC(C)CC(NC(=O)C(C)NC(=O)C(CCCCN)NC(=O)C(Cc1ccccc1)NC(=O)OCc1ccccc1)C(=O)CCl` (stereo not drawn) [Z--Phe-Lys-Ala-LeuCH2 Cl, Z-Phe-Lys-Ala-LeuCH2 Cl] (Cbz-FKAL-CH2Cl; configuration not given here), the “Percent Inhibition” value (p130^fps) was 11%.
In the case of `CC(C)C[C@H](NC(=O)[C@H](C)NC(=O)[C@H](Cc1ccccc1)NC(=O)[C@H](Cc1ccccc1)NC(=O)OCc1ccccc1)C(=O)CCl` [Z--Phe-Phe-Ala-LeuCH2 Cl] (Cbz-FFAL-CH2Cl), the “Percent Inhibition” value (p130^fps) is reported as 11%.
With `CC(C)CC(NC(=O)C(C)NC(=O)C1CCCN1C(=O)C(Cc1ccccc1)NC(=O)OCc1ccccc1)C(=O)CCl` (stereo not drawn) [Z--Phe-Pro-Ala-LeuCH2 Cl] (Cbz-FPAL-CH2Cl; configuration not given here) the “Percent Inhibition” value (p130^fps) was 16%.
For `C[C@H](NC(=O)OCc1ccccc1)C(=O)CCl` [Z-AlaCH2 Cl], the “% inhibition, EGF Added” value ([3]; 400 nmol/mg protein) was 71%, the “EGF Added (pmol 32P incorporated/min/mg protein)” value [3, 4] was 5.9 pmol^32 P incorporated/min/mg and the “% inhibition, No EGF Added” value ([3]; 400 nmol/mg protein) was 44%. The “No EGF Added (pmol 32P incorporated/min/mg protein)” value [3, 5] was 4.1 pmol^32 P incorporated/min/mg.
